In publication PMC2970562, “High-Affinity Inhibitors of Human NAD^+-Dependent 15-Hydroxyprostaglandin Dehydrogenase: Mechanisms of Inhibition and Structure-Activity Relationships” (PLoS ONE, 2010):
Each block holds one compound with its values, some of them ahead of it.

Assays:
[1] = target: T1, human 15-PGDH (Homo sapiens, UniProt P15428); assay: Differential scanning fluorimetry (DSF), thermal stabilization; format: binding; settings: 1 µM protein, compound 50 or 250 µM, N/A = no unfolding transition observed in DSF; for ∆Tm [°C] NAD+: with 200 µM NAD+; for ∆Tm [°C] NADH: with 200 µM NADH; for ∆Tm [°C] apo: without cofactor
T1 construct: comprising residues 3–256 of the human HPGD gene (GenBank identifier: 1203982); His6 (GHHHHHH, behind the TEV site) (C, cleaved yes); made in house; host or cells: E. coli BL21(DE3)-R3
T1 sequence (P15428 3-256): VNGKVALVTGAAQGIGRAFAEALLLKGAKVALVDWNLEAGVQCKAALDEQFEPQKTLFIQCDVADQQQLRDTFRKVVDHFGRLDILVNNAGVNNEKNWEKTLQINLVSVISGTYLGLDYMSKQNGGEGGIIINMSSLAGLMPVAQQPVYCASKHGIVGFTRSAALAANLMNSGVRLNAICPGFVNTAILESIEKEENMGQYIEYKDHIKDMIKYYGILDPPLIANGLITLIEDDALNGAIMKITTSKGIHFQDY
Method: A correlation between the ΔTm and the inhibitory potency has been shown in a number of protein-ligand systems, particularly for kinases [32]–[34].
Studies to assess the thermal stability of human 15-PGDH in presence of compounds were performed as described previously, with variations. Briefly, the protein was diluted to a final assay concentration of 1 µM in 100 mM Tris buffer pH 8.0, containing 0.01% Tween-20 and 1∶1000 SYPRO orange dye (Invitrogen). […] Compounds were added at a ratio of 1∶5 from appropriate stock solutions in 10% (v/v) DMSO to comprise either 50 or 250 µM final concentrations. Heat denaturation curves were recorded using a RT-PCR instrument (Mx3005p, Agilent) applying a temperature gradient of 2°C/min. […] 2.5 (ftp://ftp.sgc.ox.ac.uk/pub/biophysics) and PRISM 5.0 (GraphPad Software, Inc.).

[2] = target: T1, human 15-PGDH; assay: qHTS and 24-point re-test: fluorescence assay of NAD+ reduction to NADH on PGE2 oxidation (PubChem AID 894); format: biochemical; settings: potency in 24-point titrations on re-test; 20 nM 15-PGDH, 1 mM NAD+, 30 µM PGE2, pH 8.0; read-out: qHTS IC50
Method: The assay was miniaturized to a 4-µL volume in 1536-well format: enzyme (3 µL) was dispensed first, followed by a pintool transfer of library compounds dissolved in DMSO. After equilibration, a substrate dispense (1 µL) initiated the enzymatic reaction (see Materials and Methods, for detailed protocol description). […] Hits associated with low-efficacy (<40% maximum inhibition), incomplete curves, as well as those displaying only a single-point inhibition at the top concentration tested were eliminated from further consideration. Similarly, the collection of real-time kinetic data allowed the autofluorescence of each compound to be evaluated by comparing the initial fluorescence read at top concentration with the mean value of uninhibited assay controls: compounds whose top-concentration initial well fluorescence exceeded six standard deviations over the mean were flagged as potential autofluorescent artifacts, [28] (see example in supplementary information Figure S1E). The complete screening and followup results are available in PubChem (PubChem Assay ID 894).
The enzymatic reaction was performed in 50 mM Tris-HCl pH 8.0, containing 0.01% Tween 20. […] The high-throughput screen was performed on a fully integrated robotic system (Kalypsys Inc, San Diego, CA) as described elsewhere. Library compounds, arrayed as seven-point inter-plate concentration series, were screened from the lowest (3.5 nM) to the highest (57.5 µM) concentration, with plates containing DMSO only, serving to note any systematic drifts in the signal, interspersed evenly throughout the screen (approximately every 50 plates). Briefly, 3 µL of reagents were dispensed into 1536-well Greiner black solid-bottom assay plates using integrated nanoliter solenoid-technology dispensers. Compounds and controls (23 nL) were transferred via Kalypsys pintool equipped with 1,536-pin array (10-nL slotted pins; V&P Scientific, Palo Alto, CA). After a 15-minute incubation (to allow for interaction between compound and enzyme), a 1-µL substrate addition step initiated the reaction. Kinetic data were collected on a ViewLux High-throughput CCD imager (Perkin-Elmer) equipped with standard UV fluorescence optics (exc. 340 nm, em. 450 nm).
Starting fluorescence intensity and the change in fluorescence over the two-minute initial rate period were recorded for every well. Screening data were normalized against no-enzyme (64 wells, columns 3 and 4) and no-compound (32 wells located in column 1) controls, and concentration-response relationships were derived as described previously. A four-parameter Hill equation [47] was fitted to the concentration-response data using publicly available algorithms (http://www.ncgc.nih.gov/pub/openhts/curvefit/).

SMILES: Cc1cc([N+](=O)[O-])c2c(c1C)[C@@H]1C=CC[C@@H]1C(c1cccc(Cl)c1)N2 (stereo partly drawn) [Compound 37]
∆Tm [°C] NAD+ [1]: 1.1 °C
∆Tm [°C] NADH [1]: 5.0 °C
∆Tm [°C] apo [1]: -2.0 °C
IC50 [2]: 2000 nM

SMILES: COc1ccc(NS(=O)(=O)Cc2ccccc2Cl)cc1 [Compound 42]
∆Tm [°C] NAD+ [1]: 7.5 °C
∆Tm [°C] NADH [1]: 4.8 °C
∆Tm [°C] apo [1]: -0.5 °C
IC50 [2]: 316 nM

SMILES: COCCNC(=O)c1cc2oc3ccccc3c2n1C [Compound 45]
∆Tm [°C] NAD+ [1]: 2.7 °C
∆Tm [°C] NADH [1]: 2.9 °C
∆Tm [°C] apo [1]: -1.9 °C
IC50 [2]: 1580 nM

SMILES: CC(C)(C)OC(=O)NC(Cc1csc2ccccc12)C(=O)CCc1cc(C(F)(F)F)cc(C(F)(F)F)c1 (stereo not drawn) [Compound 50]
∆Tm [°C] NAD+ [1]: 1.9 °C
∆Tm [°C] NADH [1]: 1.7 °C
∆Tm [°C] apo [1]: -1.9 °C
IC50 [2]: 6310 nM

SMILES: CC(O)CN(C)C(C)N(CCN(C)C)CCN(C)C (stereo not drawn) [Compound 56]
∆Tm [°C] NAD+ [1]: 6.1 °C
∆Tm [°C] NADH [1]: 0.4 °C
∆Tm [°C] apo [1]: 0.0 °C
IC50 [2]: 1000 nM

SMILES: COc1ccc(C(=O)OCC(=O)Nc2c(C)cccc2C)cc1S(=O)(=O)N(C)C [Compound 57]
∆Tm [°C] NAD+ [1]: 9.2 °C
∆Tm [°C] NADH [1]: 1.6 °C
∆Tm [°C] apo [1]: -0.3 °C
IC50 [2]: 2240 nM

SMILES: Fc1ccccc1CSc1nc2cc(Br)cnc2[nH]1 [Compound 60]
∆Tm [°C] NAD+ [1]: 7.6 °C
∆Tm [°C] NADH [1]: 1.5 °C
∆Tm [°C] apo [1]: -0.2 °C
IC50 [2]: 631 nM

SMILES: O=c1c2ccccc2sn1-c1cc(S(=O)(=O)N2CCOCC2)ccc1N1CCCC1 [Compound 71]
∆Tm [°C] NAD+ [1]: 2.4 °C
∆Tm [°C] NADH [1]: -0.4 °C
∆Tm [°C] apo [1]: -1.8 °C
IC50 [2]: 2510 nM

SMILES: CN(CCc1ccccn1)CC(=O)Nc1ccc(OC(F)(F)F)cc1 [Compound 78]
∆Tm [°C] NAD+ [1]: 4.0 °C
∆Tm [°C] NADH [1]: -7.6 °C
∆Tm [°C] apo [1]: -7.4 °C
IC50 [2]: 2510 nM

SMILES: Cc1ccc(-c2nnc(S)n2N=CC=Cc2ccccc2[N+](=O)[O-])cc1 [Compound 80]
∆Tm [°C] NAD+ [1]: 4.5 °C
∆Tm [°C] NADH [1]: 0.2 °C
IC50 [2]: 501 nM

SMILES: CNC(C)C(O)c1ccccc1.O=S(=O)(O)O (stereo not drawn) [Compound 84]
∆Tm [°C] NAD+ [1]: 1.5 °C
∆Tm [°C] NADH [1]: -0.1 °C
∆Tm [°C] apo [1]: 0.7 ± 0.1 °C
IC50 [2]: 1410 nM

Results, then the compound that gave them:

∆Tm [°C] NAD+ [1]: 0.9 °C
∆Tm [°C] NADH [1]: 2.9 °C
∆Tm [°C] apo [1]: -1.5 °C
IC50 [2]: 10000 nM
SMILES: CCN(CC)C(=O)c1sc2nc(-c3cccs3)cc(-c3ccc(Cl)cc3)c2c1N [Compound 36]

∆Tm [°C] NAD+ [1]: 0.5 °C
∆Tm [°C] NADH [1]: 3.3 °C
∆Tm [°C] apo [1]: -0.6 °C
IC50 [2]: 1000 nM
SMILES: Cc1ccc2cc3c(N)c(C(=O)N4CCC(C)CC4)sc3nc2c1 [Compound 48]

∆Tm [°C] NAD+ [1]: 6.0 °C
∆Tm [°C] NADH [1]: 3.9 °C
∆Tm [°C] apo [1]: -1.5 °C
IC50 [2]: 2510 nM
SMILES: Cc1ccc(C2=NC(=CN3CCOCC3)C(=O)O2)cc1 [Compound 54]

∆Tm [°C] NAD+ [1]: 3.7 °C
∆Tm [°C] NADH [1]: 4.7 °C
∆Tm [°C] apo [1]: 0.1 °C
IC50 [2]: 1120 nM
SMILES: Brc1ccc(-c2cc3n(n2)CCc2nc4ccccc4n2-3)cc1 [Compound 55]

∆Tm [°C] NAD+ [1]: 6.9 °C
∆Tm [°C] NADH [1]: 1.7 °C
∆Tm [°C] apo [1]: -6.1 °C
IC50 [2]: 2240 nM
SMILES: Cc1cc(C(=O)N2CCN(C)CC2)c(C)n1C1CC1 [Compound 59]

∆Tm [°C] NADH [1]: -0.2 °C
IC50 [2]: 631 nM
SMILES: COc1ccc(CNC(=O)CCn2c(-c3cccc(C)c3)n[nH]c2=S)cc1 [Compound 65]

∆Tm [°C] NADH [1]: -0.7 °C
IC50 [2]: 355 nM
SMILES: C=CCn1c(=NC(=O)c2cc(C)n(C)n2)sc2cc(Cl)ccc21 [Compound 66]

∆Tm [°C] apo [1]: -4.1 °C
IC50 [2]: 1120 nM
SMILES: Cc1cc(=O)oc2cc(OCC(=O)N3CCCc4ccccc43)ccc12 [Compound 79]
